Results: patent US8138170B2, “Immunosuppressive Ningalin compounds” (Memorial Sloan-Kettering Cancer Center, priority 2004, dated 2012)
“And” between values parts separate entries of the source, which are not always exact repeats. Identical values can stand only once. Like-named read-outs stand apart in the source and are kept apart here.

What was measured:
[1] = tested on: P388/DX leukemic cells resistant to Adriamycin; settings: for Log cell kill: calculated assuming doubling time 0.4 day
[2] = tested on: carrageenan-induced paw edema; assay: Carrageenan-induced paw edema; type: in vivo, B6D2F1 mice; settings: for Pedis Area: individual mice 1-4; for Pedis Area, Mean: mean of 4 mice
Description: Carrageene (1%, 30 μl) was injected i.m. into the pedis of B6D2F1 mice (4 mice/group) to induced edemic inflammation at 0 hours. N3, N5 (i.p. injection) or oral administration of aspirin 500 mg/kg, or topical application of hydrocortisone cream (1%) or Lidex cream (0.05%) to the pedis skins were given at −1, 6, 12 and 24 hours. The control mice received dimethylsulfoxide (the vehicle of ningalins). The pedis areas (in mm^2) were measured at 0, 3, 6, 12, 24, 36 and 48 hours.

[3] = Cytotoxicity measured by cell proliferation inhibition; type: cell-based
C57BL/6 heart allografts = assay: Heterotopic heart transplantation in mice; type: in vivo, Balb/c mice
Description: Heterotopic heart transplantation was performed in rats and mice. In brief, heart transplantation was performed by previously described modified method. Hearts harvested from donors were perfused with chilled saline and immediately transplanted to recipients under full anesthesia. Suture 10-0 in rats and 12-0 in mice (Ethicon; Somerville, N.J.) was used to perform anastomosis of aorta to aorta and pulmonary artery to vena cava. Heartbeat was evaluated daily and the day of complete cessation was considered rejection. Animals that died within three days after transplantation were excluded from the analysis (less than 5%).
Mice were also transplanted with heart allografts. In particular, untreated Balb/c (H-2^d) recipients rejected C57BL/6 (H-2^b) heart allografts at a MST of 7.8±0.84 days (n=5). Treatment with 40 mg/kg N5, QDx7, extended heart allograft survival to 13.33±2.52 days, which increased life span 71% (n=3; p<0.03).
Mice heart allografts were treated with 20 mg/kg of N3, QDx7, i.p. In particular, untreated Balb/c (H-2^d) recipients rejected C57BL/6 ([…]) heart allografts at a MST of […] days (n=5). Treatment with 20 mg/kg of N3 (i.e., one-half of dose of N5) extended heart allograft survival to 18.75±3.86 days (n=4; p<0.0005), an increase in lifespan of 140%.

P388/DX leukemic cells = type: in vivo, B6D2F1 mice; settings: for Log cell kill: calculated assuming doubling time 0.4 day
human lymphocytes = assay: Inhibition of PHA-stimulated lymphocyte proliferation ([3H]thymidine incorporation); type: cell-based; settings: for IC50: read-out: Immunosuppressive Effect (IC50 in μM) [B]
[4] = Adriamycin 3.0 mg/kg iv alone or with N3 20 mg/kg ip, QD × 3
[5] = N3 20 mg/kg ip and/or Adriamycin 1.5 mg/kg iv, QD × 3
[6] = 0 hr, aspirin 500 mg/kg oral, N3 100 mg/kg i.p., N5 50 mg/kg i.p., hydrocortisone cream 1%, Lidex cream 0.05% topical, given at −1, 6, 12, 24 hours
[7] = N3 20 mg/kg ip and/or Taxol 5.0 mg/kg iv, QD × 3
[8] = PHA-stimulated human lymphocyte proliferation
[9] = Taxol 10.0 mg/kg iv alone or with N3 20 mg/kg ip, QD × 3

Row | SMILES | Lifespan increase (%) [1, 5] | Median survival time (days ± SD) [1, 5] [days] | Pedis Area [2, 6] [mm^2] | Pedis Area, Mean ([2]; 0 hr, doses as E35) [mm^2] | Pedis Area ([2]; 3 hr, doses as E35) | Pedis Area, Mean ([2]; 3 hr, doses as E35) [mm^2] | Pedis Area ([2]; 6 hr, doses as E35) | Pedis Area, Mean ([2]; 6 hr, doses as E35) [mm^2] | Pedis Area ([2]; 12 hr, doses as E35) | Pedis Area, Mean ([2]; 12 hr, doses as E35) [mm^2] | Pedis Area ([2]; 24 hr, doses as E35) | Pedis Area, Mean ([2]; 24 hr, doses as E35) [mm^2] | Pedis Area ([2]; 36 hr, doses as E35) | Pedis Area, Mean ([2]; 36 hr, doses as E35) [mm^2] | Pedis Area ([2]; 48 hr, doses as E35) | Pedis Area, Mean ([2]; 48 hr, doses as E35) [mm^2] | IC50 [3] [µM] | Lifespan increase (%) (P388/DX leukemic cells; [7]) | Median survival time (days ± SD) (P388/DX leukemic cells; [7]) [days] | IC50 (human lymphocytes; [8]) [µM] | also measured
1 | COc1cccc2c1C(=O)c1c(O)c3c(c(O)c1C2=O)C[C@@](O)(C(=O)CO)C[C@@H]3O[C@H]1C[C@H](N)[C@H](O)[C@H](C)O1 [Adriamycin, Doxorubicin] | +7% | 11.25 ± 1.75 |  |  |  |  |  |  |  |  |  |  |  |  |  |  |  |  |  |  | Log cell kill ([1]; Adriamycin 1.5 mg/kg iv alone or with N3 20 mg/kg ip): 0.56; Lifespan increase (%) [1, 4]: +15%; Lifespan increase (days) [1, 4]: +1.58 days; Median survival time (days ± SD) [1, 4]: 12.08 ± 1.81 days; Log cell kill ([1]; Adriamycin 3.0 mg/kg iv alone or with N3 20 mg/kg ip): 1.19; Lifespan increase (days) [1, 5]: +0.75 days
2 | CC(=O)Oc1ccccc1C(=O)O [Aspirin, aspirin, reference compound] |  |  | 100 | 100 | 142.2 mm^2 and 130.5 mm^2 and 122 mm^2 and 134.5 mm^2 | 132.3 | 151.4 mm^2 and 139.8 mm^2 and 124.6 mm^2 and 149.6 mm^2 | 141.4 | 138.5 mm^2 and 135.6 mm^2 and 120.3 mm^2 and 138.9 mm^2 | 133.3 | 116.5 mm^2 and 116.9 mm^2 and 108.5 mm^2 and 118.6 mm^2 | 115.1 | 114.7 mm^2 and 107.6 mm^2 and 94.1 mm^2 and 109.7 mm^2 | 106.5 | 118.3 mm^2 and 105.9 mm^2 and 92.4 mm^2 and 111.5 mm^2 | 107 |  |  |  |  | 
3 | COc1ccc(CCn2cc(-c3ccc(OC)c(OC)c3)c3c4cc(OC)c(OC)cc4oc(=O)c32)cc1OC [Ningalin N3, 1-(3,4-Dimethoxy-phenyl)-3-[2-(3,4-dimethoxy-phenyl)-ethyl]-7,8-dimethoxy-3H-5-oxa-3-aza-cyclopenta[α]naphthalen-4-one] | −12% | 9.25 ± 0.66 | 100 | 100 | 134.4 mm^2 and 142.7 mm^2 and 141.7 mm^2 and 139.5 mm^2 | 139.6 | 140.6 mm^2 and 159.2 mm^2 and 153.4 mm^2 and 151.8 mm^2 | 151.3 | 140.6 mm^2 and 150.5 mm^2 and 139.8 mm^2 and 135.1 mm^2 | 141.5 | 134.4 mm^2 and 142.7 mm^2 and 136.9 mm^2 and 128.1 mm^2 | 135.5 | 131.1 mm^2 and 136.9 mm^2 and 121.9 mm^2 and 127.9 mm^2 | 129.5 | 131.1 mm^2 and 136.9 mm^2 and 115.8 mm^2 and 126 mm^2 | 127.5 | 51.3 ± 18 | −13% | 8.00 ± 0.54 | 0.51 ± 0.19 | anti-inflammatory effect (FIG. 3) ([2]; N5 50 mg/kg i.p., N3 100 mg/kg i.p., all drugs: at 12-48 hours): produced an anti-inflammatory effect; Lifespan increase [1, 5]: -1.25 days; decreased the lifespan ([1]; N3 alone 20 mg/kg i.p. daily for three days, vs control): 12%; MST ± SD days (heart allograft survival) (C57BL/6 heart allografts; B6 heart to Balb/c, N3 20 mg/kg QDx7 i.p., 20 mg/kg): 18.75±3.86 days; increase in lifespan (C57BL/6 heart allografts; heart allograft, N3 20 mg/kg QDx7 i.p., vs untreated): 140%; Survival days (individual animals) (C57BL/6 heart allografts; heart, N3 20 mg/kg, 20 mg/kg): 19 days and 24 days and 15 days and 17 days; lifespan of tumor bearing mice compared to saline treated controls (P388/DX leukemic cells; N3 20 mg/kg i.p. daily for three days): decreased the lifespan; Lifespan increase (P388/DX leukemic cells; [7]): -1.19 days
4 | COC(=O)c1c(-c2cc(OC)c(OC)c(OC)c2)c(-c2cc(OC)c(OC)c(OC)c2)c(C(=O)OC)n1CCc1ccc(OC)cc1 [Ningalin N6, 1-[2-(4-Methoxy-phenyl)-ethyl]-3,4-bis-(3,4,5-trimethoxy-phenyl)-1H-pyrrole-2,5-dicarboxylic acid dimethyl ester] |  |  |  |  |  |  |  |  |  |  |  |  |  |  |  |  | 70.2 ± 20.5 |  |  | 1.61 ± 0.31 | Selectivity Ratio [A]/[B] (human lymphocytes; cytotoxicity IC50 / immunosuppressive IC50): 43.6
5 | CC(=O)O[C@H]1C(=O)[C@@]2(C)[C@H]([C@H](OC(=O)c3ccccc3)[C@]3(O)C[C@H](OC(=O)[C@H](O)[C@@H](NC(=O)c4ccccc4)c4ccccc4)C(C)=C1C3(C)C)[C@]1(OC(C)=O)CO[C@@H]1C[C@@H]2O [Taxol, paclitaxel] |  |  |  |  |  |  |  |  |  |  |  |  |  |  |  |  |  | +4% | 9.56 ± 0.62 |  | Lifespan increase (days) (P388/DX leukemic cells; [7]): +0.37 days; Log cell kill (P388/DX leukemic cells; Taxol 5.0 mg/kg iv alone or with N3 20 mg/kg ip): 0.28; Lifespan increase (%) (P388/DX leukemic cells; [9]): +4%; Lifespan increase (days) (P388/DX leukemic cells; [9]): +0.37 days; Median survival time (days ± SD) (P388/DX leukemic cells; [9]): 9.56 ± 0.88 days; Log cell kill (P388/DX leukemic cells; Taxol 10.0 mg/kg iv alone or with N3 20 mg/kg ip): 0.28
6 | COc1ccc(CCN(C)CCCC(C#N)(c2ccc(OC)c(OC)c2)C(C)C)cc1OC (centres unmarked) [Verapamil, reference compound] |  |  |  |  |  |  |  |  |  |  |  |  |  |  |  |  |  |  |  |  | IC50 (human lymphocytes; Homo sapiens, Lymphocyte): 6.9 ± 1.01 µM
